The values below are quoted from earlier work in patent US20090196863A1, “METHOD OF ANTIOXIDATION AND ANTIOXIDANT-FUNCTIONING WATER” (MIZ CO., LTD., priority 2001, published 2009).

The conditions of the data set: normal temperature (20° C.) and atmospheric pressure.

For `[HH]` [molecular hydrogen], the saturated solvent concentration result was “approximately 1.6 mg/L”.
